Here are results for twelve compounds from patent US20140220477A1, “Polymers, substrates, methods for making such, and devices comprising the same” (Avertica, Inc., priority 2013, published 2014).

Each structure is given as a SMILES string. Counter-ions that a name gives are not always drawn.

The target in the first assay is T1, mushroom tyrosinase (polyphenol oxidase) Sigma T3824 (Agaricus bisporus, UniProt C7FF04).
T1 construct: purchased Sigma T3824
T1 sequence (C7FF04 1-392 limits assumed): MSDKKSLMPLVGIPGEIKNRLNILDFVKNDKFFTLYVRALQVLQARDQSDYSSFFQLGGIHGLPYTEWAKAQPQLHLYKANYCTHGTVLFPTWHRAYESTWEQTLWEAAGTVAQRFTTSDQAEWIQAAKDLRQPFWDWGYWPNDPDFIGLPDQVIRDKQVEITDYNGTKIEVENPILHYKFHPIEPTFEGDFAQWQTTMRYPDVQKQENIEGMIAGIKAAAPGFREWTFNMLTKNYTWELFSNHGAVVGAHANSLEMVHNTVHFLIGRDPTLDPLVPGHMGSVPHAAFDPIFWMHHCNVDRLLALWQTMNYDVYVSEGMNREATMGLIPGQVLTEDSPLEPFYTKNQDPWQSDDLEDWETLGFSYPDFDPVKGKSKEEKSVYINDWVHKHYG
The assay can be described thus: Testing of polymer production in enzymatic tyrosinase (polyphenol oxidase) reaction. It is filed as biochemical. Set-up: key: +++: Reacted within about 1 hour; ++: reacted within about 3 hours; +: reacted within about 24 hours; +/−: inconclusive results; −: no reaction. The note with it: approx. 50 mM potassium phosphate buffer pH 6.5, approx. 5 mM substrate, 100 to 10,000 units enzyme, observed over 24 hours. Here is the method:
All reactions were carried out in approximately 50 mM potassium phosphate buffer, pH 6.5 with approximately 5 mM substrate and mushroom tyrosinase (polyphenol oxidase) Sigma T3824 in an amount of 100 to 10,000 units. Reaction volumes varied from 200 μl to 2 ml. In cases where substrates were not completely solubilized, then a saturated solution was used as the limit of solubility. In some cases, a solution of DMSO was used to increase solubility of the substrates. The enzyme was tested and shown to retain activity up to 50% DMSO. The reactions were observed over a 24 hour period for the production of polymers, and the presence and color of polymer and solution was recorded.
The production of polymers in each reaction was visible as a precipitate in the well of a 96 well plate or in the reaction mixture on a glass slide.
As to `N[C@@H](Cc1ccc(O)cc1)C(=O)O` [Tyrosine], the “Result (polymer production in tyrosinase reaction)” value (from here on “Result”) is recorded as “++ (reacted within about 3 hours)”.

On to `Cl.NCCc1ccccc1` [Beta phenylethylamine HCL], for which the “Result” value was “+/−”.

`NCCc1ccc(O)cc1` [Tyramine]: the “Result” value is reported as “+++ (Reacted within about 1 hour)”.

With `Oc1ccc2[nH]ccc2c1` [5-hydroxyindole], the “Result” value is recorded as “+++ (Reacted within about 1 hour)”.

Take `c1ccc2[nH]ccc2c1` [Indole]: the “Result” value is given as “−”.

Turning to `Oc1ccc2cc(O)ccc2c1` [2,6 dihydroxnaphthalene], the “Result” value is recorded as “+ (reacted within about 24 hours)”.

For the compound `Cl.NCCc1ccc(O)cc1` [Tyramine HCl], the “Result” value is “+++ (Reacted within about 1 hour)”.

With `CN[C@@H](Cc1ccc(O)cc1)C(=O)O` [N-methyl tyrosine], the “Result” value was “++ (reacted within about 3 hours)”.

`Oc1ccc2cc[nH]c2c1` [6 Hydroxyindole]: the “Result” value was “++ (reacted within about 3 hours)”.

The assay is the same for the next values; noted with them: as above; marked substrate(s) dissolved in 20% DMSO.
As to `Oc1ccc2c(c1)[nH]c1ccccc12` [2 Hydroxy carbazole], the “Result” value is recorded as “−”.

Turning to `CC1=NCCc2c1[nH]c1cc(O)ccc21` [Harmalol HCl dehydrate], the “Result” value is “−”.

In the case of `Oc1ccc(-c2cc(-c3ccc(O)cc3)cc(-c3ccc(O)cc3)c2)cc1` [1,3,5 Tris(4hydroxyphenyl)benzene], the “Result” value is recorded as “+ (reacted within about 24 hours)”.
